According to patent US7119115B2, “Indazole or indole derivatives, and use thereof in human medicine and more particularly in oncology” (Aventis Pharma S.A., priority 2001, dated 2006):

How the values were obtained:
[1] = target: T1, Tubulin (Sus scrofa, UniProt P02550+P02554); assay: Evaluation of the inhibition of tubulin polymerization (turbidimetry at 350 nm); type: biochemical; settings: concentration that inhibits the rate of polymerization by 50%; pig brain tubulin 10 μM
T1 construct: Tubulin is purified from pig brain according to published methods; from tissue; host or cells: pig brain
T1 sequence (P02550 whole entry): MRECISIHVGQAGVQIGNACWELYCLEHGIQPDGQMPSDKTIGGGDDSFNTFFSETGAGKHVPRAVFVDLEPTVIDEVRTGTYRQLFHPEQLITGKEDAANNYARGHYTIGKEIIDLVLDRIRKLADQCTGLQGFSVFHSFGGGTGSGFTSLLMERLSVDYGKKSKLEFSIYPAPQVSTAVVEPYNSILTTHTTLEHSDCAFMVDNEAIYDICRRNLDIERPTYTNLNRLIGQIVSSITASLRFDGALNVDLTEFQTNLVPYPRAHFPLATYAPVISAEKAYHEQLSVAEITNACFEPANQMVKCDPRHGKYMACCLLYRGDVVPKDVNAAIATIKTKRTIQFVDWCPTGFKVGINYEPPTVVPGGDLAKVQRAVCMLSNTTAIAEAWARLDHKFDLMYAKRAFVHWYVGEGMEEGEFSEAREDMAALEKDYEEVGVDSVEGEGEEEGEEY
T1 sequence (P02554 whole entry): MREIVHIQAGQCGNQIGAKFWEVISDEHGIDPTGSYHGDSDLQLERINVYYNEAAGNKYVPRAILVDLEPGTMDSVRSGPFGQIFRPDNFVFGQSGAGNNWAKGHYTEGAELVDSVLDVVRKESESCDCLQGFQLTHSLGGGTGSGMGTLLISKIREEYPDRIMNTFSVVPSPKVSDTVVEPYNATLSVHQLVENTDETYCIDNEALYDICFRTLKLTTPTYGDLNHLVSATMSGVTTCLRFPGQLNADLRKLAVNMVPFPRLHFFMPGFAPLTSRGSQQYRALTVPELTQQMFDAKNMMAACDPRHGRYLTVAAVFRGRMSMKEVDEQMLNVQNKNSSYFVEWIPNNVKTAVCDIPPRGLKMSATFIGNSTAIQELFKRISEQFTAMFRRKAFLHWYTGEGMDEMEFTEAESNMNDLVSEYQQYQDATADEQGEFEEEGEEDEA
Protocol: Briefly, the brains are ground and centrifuged in an extraction buffer. The tubulin contained in the supernatant of the extract undergoes two successive cycles of polymerization at 37° C. and depolymerization at 4° C., before being separated from the MAPs (Microtubule Associated Proteins) by chromatography on a phosphocellulose P11 column (Whatman). […] It is stored in a buffer known as RB/2 30% glycerol, the composition of which is 50 mM MES-NaOH [2-(N-morpholino)ethanesulphonic acid], pH 6.8; 0.25 mM MgCl2; 0.5 mM EGTA; 30% glycerol (v/v), 0.2 mM GTP (guanosine-5′-triphosphate).
The polymerization of tubulin to microtubules is monitored by turbidimetry as follows: the tubulin is adjusted to a concentration of 10 μM (1 mg/ml) in RB/2 30% glycerol buffer to which 1 mM GTP and 6 mM MgCl2 are added. […] The increase in the turbidity of the solution is monitored at 350 nm.
The products are dissolved at 10 mM in DMSO and added at variable concentrations (0.5 to 10 μM) to the tubulin solution before polymerization.

[2] = system: HDMEC cells (Human Dermal Microvascular Endothelial Cells); assay: Detachment of endothelial cells in vitro (test for determining the inhibition of vascularization); type: cell-based; settings: two hours of treatment, relative to control (untreated cells); for inhibition at 1 µM: Homo sapiens, Endothelial cell, 2 h
From the text: A test for determining the detachment of the endothelial cells was developed in order to select the products with regard to their “in vitro” activity. This test for determining the detachment of endothelial cells is characterized in that the endothelial cells, inoculated into plates whose bottom is covered with a binder preferably chosen from gelatin, fibronectin and vitronectin, after culturing, are supplemented with a medium containing the test compound, and the cells are then labelled with a fluorescent substance, the cells which have become detached are removed by washing and the fluorescence of the remaining cells is counted in a fluorimeter.
This test consists in measuring the detachment of endothelial cells cultured on substrata based on a binder preferably chosen from fibronectin, vitronectin and gelatin. Preferably, a day after the inoculation of the cells in plates containing, for example, 96 wells, the culture medium is replaced with a medium containing the test compound in the absence of serum. The same preparation is prepared six times at three different concentrations ([…]) and the control six times without addition of antivascular product. After two hours of treatment with the test substance, the cells are labelled with calcein-AM (1.6 μg/ml) in culture medium supplemented with 0.1% BSA. The cells that have become detached are removed by washing with the culture medium containing 0.1% bovine serum albumin; 100 μl of medium are added to each well. The fluorescence of the remaining cells is counted in a fluorimeter. The data obtained are expressed relative to the control (untreated cells).
The evaluation of the detachment of the endothelial cells in vitro is determined in the following manner. HDMEC cells (Human Dermal Microvascular Endothelial Cells, Promocell, c-122102) are cultured in an ECGM-MV medium that contains 5% foetal calf serum, growth factors (EGF 10 ng/ml, hydrocortisone 1 μg/ml, 0.4% growth supplement with heparin) and antibiotics (amphotericin 50 ng/ml, gentamycin 50 μg/ml). For the detachment test, the HDMECs are inoculated at a rate of 5 000 cells in clear-bottomed 96-well plates (Costar) precoated with fibronectin (10 μg/ml), vitronectin (1 μg/ml) or gelatin. Twenty-four hours later, the culture medium is replaced with ECGM-MV 0.1% BSA medium containing the products indicated. The concentrations tested are 0.1–0.3 and 1 μM for each product. After two hours of treatment, the cells are labelled for one hour with calcein (1.6 μg/ml, Molecular Probes) in ECGM-MV 0.1% BSA medium. The detached cells are then removed by washing with ECGM-MV 0.1% BSA medium; 100 μl of medium is added to each well. The fluorescence of the cells that remain attached to the substratum of the well is counted using a fluorimeter, Spectrafluor Plus (Tecan excitation 485 nm, and emission 535 nm). The data are the mean of six different samples and are expressed as the percentage of the control (untreated cells).
A cell detachment effect of greater than or equal to 15% is considered as significant.

Compound	IC50 [1] [µM]	inhibition at 1 µM [2] [%]	melting point [°C]	% detachment 1 μM [2] [%]
O=C(c1n[nH]c2c1C=CC(c1ccc(F)cc1)(c1ccc(F)cc1)C2)C1CC1 [Example 10-7, Cyclopropyl[6,6-bis(4-fluorophenyl)-6,7-dihydro-1H-indazol-3-yl]methanone]	1	24	–	–
O=C(Nc1n[nH]c2c1C=CC(c1ccccc1)(c1ccccc1)C2)c1ccccc1 [Example 7-4, N-[6,6-Diphenyl-6,7-dihydro-1H-indazol-3-yl]benzamide]	6	18	–	–
O=C(NC1CC1)c1n[nH]c2c1C=CC(c1ccccc1)(c1ccccc1)C2 [Example 3-1, N-(cyclopropyl)-6,6-diphenyl-6,7-dihydro-1H-indazole-3-carboxamide]	2.5	20	–	–
CCOC(=O)c1n[nH]c2c1C=CC(c1ccccc1)(c1ccc(F)cc1)C2 (single isomer, unassigned) [Example 10-3B, ethyl 6-(4-fluorophenyl)-6-phenyl-6,7-dihydro-1H-indazole-3-carboxylate]	1	19	–	–
C=CC(=O)n1nc(N)c2c1CC(c1ccccc1)(c1ccccc1)C=C2 [Example 7-2, 1-(3-Amino-6,6-diphenyl-6,7-dihydroindazol-1-yl)propenone]	5	25	–	–
CCOC(=O)c1c[nH]c2c1C=CC(c1ccccc1)(c1ccccc1)C2 [Example 12, Ethyl 6,6-diphenyl-6,7-dihydro-1H-indole-3-carboxylate]	2	17	–	–
O/N=C(\c1n[nH]c2c1C=CC(c1ccc(F)cc1)(c1ccc(F)cc1)C2)C1CC1 [Example 10-8A, cyclopropyl[6,6-bis(4-fluorophenyl)-6,7-dihydro-1H-indazol-3-yl]methanone oxime]	1.5	17	–	–
CON=Cc1n[nH]c2c1C=CC(c1ccccc1)(c1ccccc1)C2 (mixture of isomers) [Example 6-4, 6,6-diphenyl-6,7-dihydro-1H-indazole-3-carbaldehyde O-methyloxime]	6	–	184	–
CCOC(=O)c1n[nH]c2c1C=CC(c1ccccc1)(c1ccc(F)cc1)C2 (racemic) [Example 10-3A, ethyl (R,S)-6-(4-fluorophenyl)-6-phenyl-6,7-dihydro-1H-indazole-3-carboxylate]	1.2	16	–	–
ON=C(c1n[nH]c2c1C=CC(c1ccccc1)(c1ccccc1)C2)C1CCC1 [Example 6-2A, cyclobutyl(6,6-diphenyl-6,7-dihydro-1H-indazol-3-yl)methanone oxime]	1	18	–	–
C=CCO/N=C(\c1n[nH]c2c1C=CC(c1ccccc1)(c1ccccc1)C2)C1CC1 [Example 6-6A, cyclopropyl(6,6-diphenyl-6,7-dihydro-1H-indazol-3-yl)methanone O-allyloxime]	1	17	–	–
(R,S)-cyclopropyl[6-(4-fluorophenyl)-6-phenyl-6,7-dihydro-1H-indazol-3-yl]methanone [Example 10-4A]	1	–	–	33
O=C(c1n[nH]c2c1C=CC(c1ccccc1)(c1ccccc1)C2)C1CCC1 [Example 5-2, Cyclobutyl(6,6-diphenyl-6,7-dihydro-1H-indazol-3-yl)methanone]	1.1	19	–	–
CON=C(c1[nH]nc2c1C=CC(c1ccccc1)(c1ccccc1)C2)C1CC1 [Example 6-3A, cyclopropyl(6,6-diphenyl-6,7-dihydro-2H-indazol-3-yl)methanone O-methyloxime]	0.8	26	–	–
Cc1noc(-c2n[nH]c3c2C=CC(c2ccccc2)(c2ccccc2)C3)n1 [Example 8-1, 3-(3-Methyl[1,2,4]oxadiazol-5-yl)-6,6-diphenyl-6,7-dihydro-1H-indazole]	9	24	–	–
CCOC(=O)c1[nH]nc2c1C=CC(c1ccccc1)(c1ccccc1)C2 [Example 1, Ethyl 6,6-diphenyl-6,7-dihydro-2H-indazole-3-carboxylate]	1.5	20	–	–
ON=C(c1n[nH]c2c1C=CC(c1ccccc1)(c1ccccc1)C2)C1CC1 (single isomer, unassigned) [Example 6-1A, cyclopropyl(6,6-diphenyl-6,7-dihydro-1H-indazol-3-yl)methanone oxime]	0.6	34	–	–
O=C(c1cc[nH]c1)c1n[nH]c2c1C=CC(c1ccccc1)(c1ccccc1)C2 [Example 5-4, (6,6-Diphenyl-6,7-dihydro-1H-indazol-3-yl)-(1H-pyrrol-3-yl)methanone]	7	–	–	–
CCOC(=O)c1n[nH]c2c1C=CC(c1ccccc1)(c1ccc(F)cc1)C2 (single isomer, unassigned) [Example 10-3C, ethyl 6,6-(4-fluorophenyl)-6-phenyl-6,7-dihydro-1H-indazole-3-carboxylate]	1.5	–	–	–
O=C(c1n[nH]c2c1C=CC(c1ccccc1)(c1ccccc1)C2)N1CCC1 [Example 3-2, Azetidin-1-yl(6,6-diphenyl-6,7-dihydro-1H-indazol-3-yl)methanone]	4.5	–	285	–
ON=C(c1n[nH]c2c1C=CC(c1ccccc1)(c1ccc(F)cc1)C2)C1CC1 (single isomer, unassigned) [Example 10-5A]	1	25	–	–
CCOC(=O)c1n[nH]c2c1C=CC(c1ccc(F)cc1)(c1ccc(F)cc1)C2 [Example 10-6, Ethyl 6,6-bis(4-fluorophenyl)-6,7-dihydro-1H-indazole-3-carboxylate]	1	–	–	–
FCCO/N=C(\c1n[nH]c2c1C=CC(c1ccccc1)(c1ccccc1)C2)C1CC1 [Example 6-11A, cyclopropyl(6,6-diphenyl-6,7-dihydro-1H-indazol-3-yl)methanone O-(2-fluoroethyl)oxime]	1	–	–	–
O=C(c1ccccc1)c1n[nH]c2c1C=CC(c1ccccc1)(c1ccccc1)C2 [Example 5-3, (6,6-Diphenyl-6,7-dihydro-1H-indazol-3-yl)phenylmethanone]	12.5	–	–	–
CN(C)CCO/N=C(/c1n[nH]c2c1C=CC(c1ccccc1)(c1ccccc1)C2)C1CC1 [Example 6-10B, cyclopropyl(6,6-diphenyl-6,7-dihydro-1H-indazol-3-yl)methanone O-(2-dimethylaminoethyl)oxime]	12	–	–	–
O=C(c1n[nH]c2c1C=CC(c1ccccc1)(c1ccccc1)C2)C1CC1 [Example 5-1, Cyclopropyl(6,6-diphenyl-6,7-dihydro-1H-indazol-3-yl)methanone]	0.8	29	–	–
